pIC50: −log10 of the molar value.
Key:
Format in all cases: functional, cell-based
NCI-H1975 = assay: Antiproliferative activity against human NCI-H1975 cells assessed as reduction in cell viability incubated for 72 hrs by MTT assay; settings: NCI-H1975, 72 h
A549 = assay: cells; settings: Homo sapiens, A549, 72 h;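 also: antiproliferative effect read out as loss of cell viability by MTT assay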
A-431 = assay: cells; settings: Homo sapiens, A-431, 72 h
Description: Antiproliferative activity against human A-431 cells assessed as reduction in cell viability incubated for 72 hrs by MTT assay

Row | pIC50 (NCI-H1975) | pIC50 (A549) | pIC50 (A-431) | Compound
1 | 4.99 | 4.92 | 5.14 | CCc1ccc(Nc2ncnc3cc(OC)c(OCCCCC(=O)Nc4ccc(S(N)(=O)=O)cc4)cc23)cc1
2 | 4.89 | 4.49 | 4.57 | NS(=O)(=O)c1ccc(CCNC(=S)Nc2ccc3ncnc(Nc4ccc(C(F)(F)F)cc4)c3c2)cc1
3 | 4.94 | 5.38 | 4.78 | NS(=O)(=O)c1ccc(CCNC(=S)Nc2ccc3ncnc(Nc4ccc(F)c(Cl)c4)c3c2)cc1
4 | 4.80 | < 4.40 | 4.42 | NS(=O)(=O)c1ccc(NC(=S)Nc2ccc3ncnc(Nc4ccc(F)c(Cl)c4)c3c2)cc1
5 | 4.94 | 4.83 | 5.01 | COc1cc2ncnc(Nc3cccc(Br)c3)c2cc1OCCCCC(=O)Nc1ccc(S(N)(=O)=O)cc1
6 | 4.40 | 5.55 | 4.40 | Cc1ccc(Nc2ncnc3ccc(NC(=S)Nc4ccc(S(N)(=O)=O)cc4)cc23)cc1
7 | 4.52 | < 4.40 | 4.83 | COc1ccc(Nc2ncnc3cc(OC)c(OCCCCC(=O)Nc4ccc(S(N)(=O)=O)cc4)cc23)cc1
8 | 4.45 | 5.26 | 5.00 | NS(=O)(=O)c1ccc(CCNC(=S)Nc2ccc3ncnc(Nc4cccc(F)c4)c3c2)cc1
9 | 4.40 | < 4.40 | 4.82 | NS(=O)(=O)c1ccc(NC(=S)Nc2ccc3ncnc(Nc4cccc(Cl)c4)c3c2)cc1
10 | 4.60 | < 4.40 | 4.88 | NS(=O)(=O)c1ccc(NC(=S)Nc2ccc3ncnc(Nc4cccc(Cl)c4F)c3c2)cc1
11 | 4.72 | < 4.40 | 4.45 | COc1cc2ncnc(Nc3ccc(C)cc3)c2cc1OCCCCC(=O)Nc1ccc(S(N)(=O)=O)cc1
12 | 4.50 | < 4.40 | 5.15 | COc1cc2ncnc(Nc3ccc(Cl)cc3)c2cc1OCCCCC(=O)Nc1ccc(S(N)(=O)=O)cc1
13 | 4.48 | 4.95 | 4.52 | COc1cc2ncnc(Nc3cccc(Cl)c3)c2cc1OCCCCC(=O)Nc1ccc(S(N)(=O)=O)cc1
14 | 4.99 | 4.83 | 4.88 | Cc1ccc(Nc2ncnc3ccc(NC(=S)NCCc4ccc(S(N)(=O)=O)cc4)cc23)cc1
15 | 4.70 | < 4.40 | 4.63 | COc1cc2ncnc(Nc3cc(F)c(F)c(F)c3)c2cc1OCCCCC(=O)Nc1ccc(S(N)(=O)=O)cc1
16 | 5.00 | < 4.40 | 4.74 | NS(=O)(=O)c1ccc(NC(=S)Nc2ccc3ncnc(Nc4ccc(F)c(Br)c4)c3c2)cc1
17 | < 4.40 | < 4.40 | 4.52 | COc1cc2ncnc(Nc3cccc(F)c3)c2cc1OCCCCC(=O)Nc1ccc(S(N)(=O)=O)cc1
18 | 4.87 | < 4.40 | 4.82 | C#Cc1cccc(Nc2ncnc3ccc(NC(=S)Nc4ccc(S(N)(=O)=O)cc4)cc23)c1
19 | 4.85 | < 4.40 | 4.60 | COc1cc2ncnc(Nc3ccccc3)c2cc1OCCCCC(=O)Nc1ccc(S(N)(=O)=O)cc1
20 | 4.45 | < 4.40 | 4.62 | Cc1cccc(Nc2ncnc3ccc(NC(=S)Nc4ccc(S(N)(=O)=O)cc4)cc23)c1
21 | 4.77 | < 4.40 | 4.75 | NS(=O)(=O)c1ccc(NC(=S)Nc2ccc3ncnc(Nc4ccc(C(F)(F)F)cc4)c3c2)cc1
22 | 5.03 | 5.27 | 4.68 | NS(=O)(=O)c1ccc(CCNC(=S)Nc2ccc3ncnc(Nc4ccc(F)c(Br)c4)c3c2)cc1

Row | pIC50 (NCI-H1975) | pIC50 (A549) | pIC50 (A-431) | Compound
23 | 4.96 | 5.56 | 4.83 | NS(=O)(=O)c1ccc(CCNC(=S)Nc2ccc3ncnc(Nc4cccc(Cl)c4)c3c2)cc1
24 | 4.41 | 4.61 | 4.42 | CCc1ccc(Nc2ncnc3ccc(NC(=S)Nc4ccc(S(N)(=O)=O)cc4)cc23)cc1
25 | 5.06 | < 4.40 | 4.65 | COc1cc2ncnc(Nc3ccc(OC(F)(F)F)cc3)c2cc1OCCCCC(=O)Nc1ccc(S(N)(=O)=O)cc1
26 | 4.96 | 4.60 | 4.68 | NS(=O)(=O)c1ccc(NC(=S)Nc2ccc3ncnc(Nc4cccc(Br)c4)c3c2)cc1
27 | 4.97 | 5.03 | 4.76 | NS(=O)(=O)c1ccc(CCNC(=S)Nc2ccc3ncnc(Nc4cccc(Br)c4)c3c2)cc1
28 | 4.40 | 4.52 | 4.67 | NS(=O)(=O)c1ccc(CCNC(=S)Nc2ccc3ncnc(Nc4ccc(Cl)c(C(F)(F)F)c4)c3c2)cc1
29 | 5.03 | 4.78 | 4.40 | CCc1ccc(Nc2ncnc3ccc(NC(=S)NCCc4ccc(S(N)(=O)=O)cc4)cc23)cc1
30 | < 4.40 | < 4.40 | 4.73 | COc1cc2ncnc(Nc3ccc(F)cc3)c2cc1OCCCCC(=O)Nc1ccc(S(N)(=O)=O)cc1
31 | 4.99 | < 4.40 | 4.53 | NS(=O)(=O)c1ccc(NC(=S)Nc2ccc3ncnc(Nc4ccc(OCc5cccc(F)c5)c(Cl)c4)c3c2)cc1
32 | 4.88 | 4.78 | 4.93 | C#Cc1cccc(Nc2ncnc3cc(OCCOC)c(OCCOC)cc23)c1 [ERLOTINIB]
33 | 5.10 | 4.62 | 4.62 | COc1ccccc1Nc1ncnc2cc(OC)c(OCCCCC(=O)Nc3ccc(S(N)(=O)=O)cc3)cc12
34 | 4.93 | 5.35 | 4.74 | NS(=O)(=O)c1ccc(NC(=S)Nc2ccc3ncnc(Nc4ccc(Cl)c(C(F)(F)F)c4)c3c2)cc1
35 | 4.63 | < 4.40 | 5.18 | COc1cc2ncnc(Nc3ccc(Br)cc3)c2cc1OCCCCC(=O)Nc1ccc(S(N)(=O)=O)cc1
36 | 5.03 | < 4.40 | 4.45 | COc1ccc(Nc2ncnc3cc(OC)c(OCCCCC(=O)Nc4ccc(S(N)(=O)=O)cc4)cc23)cc1OC
37 | 4.90 | 5.41 | 4.90 | C#Cc1cccc(Nc2ncnc3ccc(NC(=S)NCCc4ccc(S(N)(=O)=O)cc4)cc23)c1
38 | 5.02 | 4.59 | 4.52 | NS(=O)(=O)c1ccc(NC(=S)Nc2ccc3ncnc(Nc4cccc(F)c4)c3c2)cc1
39 | 4.50 | 4.80 | 5.10 | COc1cc2ncnc(Nc3ccc(F)c(Br)c3)c2cc1OCCCCC(=O)Nc1ccc(S(N)(=O)=O)cc1
40 | 4.88 | 5.34 | 5.38 | NS(=O)(=O)c1ccc(CCNC(=S)Nc2ccc3ncnc(Nc4cccc(Cl)c4F)c3c2)cc1
41 | 4.49 | 4.80 | 5.13 | COc1cc2ncnc(Nc3cccc(C)c3)c2cc1OCCCCC(=O)Nc1ccc(S(N)(=O)=O)cc1
42 | 4.92 | 4.83 | 4.77 | COc1cc2ncnc(Nc3ccc(C(F)(F)F)cc3)c2cc1OCCCCC(=O)Nc1ccc(S(N)(=O)=O)cc1
43 | 4.68 | 5.15 | 4.80 | Cc1cccc(Nc2ncnc3ccc(NC(=S)NCCc4ccc(S(N)(=O)=O)cc4)cc23)c1

Reference: ChEMBL document CHEMBL4813962, “Design, synthesis and biological evaluation of sulfamoylphenyl-quinazoline derivatives as potential EGFR/CAIX dual inhibitors” (Eur J Med Chem, 2021)
